Reference: article PMC3626541, “A first in human, safety, pharmacokinetics, and clinical activity phase I study of once weekly administration of the Hsp90 inhibitor ganetespib (STA-9090) in patients with solid malignancies” (BMC Cancer, 2013)

Tested on: patients with advanced solid tumors
Experiment: Safety: adverse events (NCI CTCAE v3.0), ECG
Format: in vivo, human
Description: Patients’ demographics and medical history were recorded at baseline. Physical examination and PS were assessed at baseline and on Day 1 of each cycle. Adverse events (AEs), vital signs, hematology and chemistry values, and creatinine clearance were assessed at baseline and weekly during treatment. Toxicity was graded using National Cancer Institute Common Terminology Criteria for Adverse Events (NCI CTCAE), version 3.0. An electrocardiogram (ECG) was performed at baseline, before and after treatment on Days 1 and 15 of Cycles 1 and 2, and on Day 15 of even-numbered cycles thereafter. CT scans were done at baseline and every 8 weeks thereafter. Tumor response was assessed using Response Evaluation Criteria in Solid Tumors (RECIST, v1.0), with confirmation of responses performed at least 4 weeks later.

## CC(C)c1cc(-c2n[nH]c(=O)n2-c2ccc3c(ccn3C)c2)c(O)cc1O [Ganetespib, 5-[2,4-dihydroxy-5-(1 methyl-ethyl)phenyl]-2,4 dihydro-4-(1-methyl-1H indol-5 yl)-3H-1,2,4 triazole-3-one]
259 mg/m^2, n = 6
  ALT elevation, CTCAE Grade 3 and 4 AE, Number (%) of patients: 0 n (%)
  AST elevated, AE of any grade, Number (%) of patients: 0 n (%)
  Abdominal distension, AE of any grade, Number (%) of patients: 0 n (%)
  Abdominal pain, AE of any grade, Number (%) of patients: 1 (16.7) n (%)
  Abdominal pain, serious adverse events, Number (%) of patients: 1 (16.7) n (%)
  Anemia, AE of any grade, Number (%) of patients: 0 n (%)
  Any event, AE of any grade, Number (%) of patients: 6 (100) n (%)
  Any event, CTCAE Grade 3 and 4 AE, Number (%) of patients: 5 (83.3) n (%)
  Any event, serious adverse events, Number (%) of patients: 3 (50) n (%)
  Arthralgia, CTCAE Grade 3 and 4 AE, Number (%) of patients: 1 (16.7) n (%)
  Asthenia, AE of any grade, Number (%) of patients: 2 (33.3) n (%)
  Asthenia, CTCAE Grade 3 and 4 AE, Number (%) of patients: 2 (33.3) n (%)
  Asthenia, serious adverse events, Number (%) of patients: 1 (16.7) n (%)
  Back pain, AE of any grade, Number (%) of patients: 2 (33.3) n (%)
  Constipation, AE of any grade, Number (%) of patients: 1 (16.7) n (%)
  Decreased appetite, AE of any grade, Number (%) of patients: 1 (16.7) n (%)
  Dehydration, AE of any grade, Number (%) of patients: 3 (50) n (%)
  Dehydration, CTCAE Grade 3 and 4 AE, Number (%) of patients: 1 (16.7) n (%)
  Dehydration, serious adverse events, Number (%) of patients: 1 (16.7) n (%)
  Diarrhea, AE of any grade, Number (%) of patients: 6 (100) n (%)
  Diarrhea, CTCAE Grade 3 and 4 AE, Number (%) of patients: 1 (16.7) n (%)
  Dizziness, AE of any grade, Number (%) of patients: 2 (33.3) n (%)
  Dry mouth, AE of any grade, Number (%) of patients: 1 (16.7) n (%)
  Dyspnea, AE of any grade, Number (%) of patients: 1 (16.7) n (%)
  Extremity pain, AE of any grade, Number (%) of patients: 1 (16.7) n (%)
  Fatigue, AE of any grade, Number (%) of patients: 5 (83.3) n (%)
  Fatigue, CTCAE Grade 3 and 4 AE, Number (%) of patients: 1 (16.7) n (%)
  Headache, AE of any grade, Number (%) of patients: 1 (16.7) n (%)
  Hyperbilirubinemia, CTCAE Grade 3 and 4 AE, Number (%) of patients: 0 n (%)
  Hypokalemia, AE of any grade, Number (%) of patients: 1 (16.7) n (%)
  Hypokalemia, CTCAE Grade 3 and 4 AE, Number (%) of patients: 0 n (%)
  Hyponatremia, CTCAE Grade 3 and 4 AE, Number (%) of patients: 0 n (%)
  Hypophosphatemia, AE of any grade, Number (%) of patients: 0 n (%)
  Hypophosphatemia, CTCAE Grade 3 and 4 AE, Number (%) of patients: 0 n (%)
  Insomnia, AE of any grade, Number (%) of patients: 2 (33.3) n (%)
  Musculoskeletal chest pain, AE of any grade, Number (%) of patients: 0 n (%)
  Nausea, AE of any grade, Number (%) of patients: 4 (66.7) n (%)
  Peripheral edema, AE of any grade, Number (%) of patients: 1 (16.7) n (%)
  Pneumonia, serious adverse events, Number (%) of patients: 1 (16.7) n (%)
  Rash, AE of any grade, Number (%) of patients: 1 (16.7) n (%)
  Serum amylase elevated, CTCAE Grade 3 and 4 AE, Number (%) of patients: 0 n (%)
  Spinal cord compression, CTCAE Grade 3 and 4 AE, Number (%) of patients: 0 n (%)
  Urinary tract infection, AE of any grade, Number (%) of patients: 3 (50) n (%)
  Vomiting, AE of any grade, Number (%) of patients: 3 (50) n (%)
  Weight decreased, AE of any grade, Number (%) of patients: 1 (16.7) n (%)
259 mg/m^2, n = 6, first of two ALT elevated lines
  ALT elevated, AE of any grade, Number (%) of patients: 0 n (%)
259 mg/m^2, n = 6, second of two ALT elevated lines
  ALT elevated, AE of any grade, Number (%) of patients: 0 n (%)
259 mg/m^2, history of coronary artery disease, possibly related to study drug
  Patients with Grade 1 atrio-ventricular block: One patient
259 mg/m^2 dose level
  Incidence of diarrhea: 100%
  Incidence of fatigue: 83.3%
7-114 mg/m^2, n = 25
  ALT elevation, CTCAE Grade 3 and 4 AE, Number (%) of patients: 2 (8) n (%)
  AST elevated, AE of any grade, Number (%) of patients: 5 (20) n (%)
  Abdominal distension, AE of any grade, Number (%) of patients: 3 (12) n (%)
  Abdominal pain, AE of any grade, Number (%) of patients: 9 (36) n (%)
  Abdominal pain, serious adverse events, Number (%) of patients: 0 n (%)
  Anemia, AE of any grade, Number (%) of patients: 11 (44) n (%)
